In US20130116219A1, “ANTIMICROBIAL CARBOLINE COMPOUNDS” (ALCON RESEARCH, LTD., priority 2011, published 2013):
pEC50: −log10 of the molar value. Values after ≈ are worked out from the molar mass of the structure shown.

Legend:
Ad5 [1] = test: Ad5 genome replication assay (cell-based QPCR) in A549 cells; conditions: Human adenovirus sp., A549, 72 h, read-out: Ad5 qPCR EC50 (μM)
Protocol: Compounds of the present invention were tested for potency against Ad5 in an Ad5 genome replication assay, a cell-based QPCR assay of Ad5 genome replication in A549 cells, a human lung carcinoma cell line. Serotype of human Ad5, used in this replication assay can also replicate in a NZW rabbit model of adenoviral ocular keratitis.
EC50 values (μM) for inhibition of adenoviral replication were determined by QPCR. Briefly, 10,000 cultured A549 cells were inoculated with 25,000 pfu/well for 3 hrs in 2% FBS F12-K A549 culture media. Following inoculation, A549 cells were treated with log unit dilutions of compound of Formula I (˜10 μM thru˜10 pM) in 10% FBS F12-K culture media with 0.3% DMSO for an additional 3 days. Cell viability was assessed with Alamar Blue (10 μl/well for 2 hrs; fluorescence Ex353; Em595 nm). Plates were washed 3 times with 125 μl PBS, cell lysates were prepared for QPCR analysis using Cells to SNP kit (Life Technologies). Ad5 genome levels per cell were determined with RNaseP and Ad5 hexon Taqman Assays (Life Technologies). EC50, the concentration that inhibited Ad5 genome replication formation by 50%, was estimated from plots of Ad5 genomes/cell vs. compound concentration.

Ad37 = test: Plaque reduction assay in A549 cells, Ad37; type: cell-based; conditions: unidentified adenovirus, 168 h, approximately 7 d, ATCC reference strain, read-out: Adenovirus Serotype EC50 (μg/mL) Ad37
Protocol: (§1) Compounds of the present invention were tested for potency against AdV serotypes Ad3, Ad4, Ad5, Ad7a, Ad8, Ad19, and Ad37 in a plaque reduction assay, a cell-based assay of AdV replication. Ad8, Ad19, and Ad37 are the serotypes most commonly associated with epidemic keratoconjunctivitis (EKC). Ad3, Ad4, and Ad7a are serotypes most commonly associated with follicular conjunctivitis and serotype Ad5 can replicate in the NZW rabbit model of adenoviral ocular keratitis. Ad3, Ad4, Ad5, Ad7a, Ad8, and Ad19 were recovered at the Charles T. Campbell Ophthalmic Microbiology Laboratory from patients presenting with typical adenoviral ocular disease. No clinical isolates of Ad37 were available, so the ATCC (American Type Culture Collection, Manassas, Va.) reference strain of Ad37 was used.
(§2) EC50 values (μg/ml) for inhibition of adenoviral replication were determined by plaque reduction assay. Briefly, cultured A549 cells were inoculated with approximately 100 pfu of the indicated adenovirus serotype. Inoculated cells were overlaid with methylcellulose medium containing Compound 2 at 100, 10, 1, 0.1, 0.01, and 0.001 μg/ml, and incubated at 37° C./5% CO2 for approximately 7 d. Plates were stained with gentian violet, and plaques were counted in a 25× dissecting microscope. IC50, the concentration that inhibited plaque formation by 50%, was estimated from plots of mean plaque count vs. concentration.

Ad3 = test: Plaque reduction assay in A549 cells, Ad3; type: cell-based; conditions: unidentified adenovirus, 168 h, approximately 7 d, read-out: Adenovirus Serotype EC50 (μg/mL) Ad3
Protocol: as §1, §2

Ad5 [2] = test: Plaque reduction assay in A549 cells, Ad5; type: cell-based; conditions: unidentified adenovirus, A549, 168 h, read-out: Adenovirus Serotype EC50 (μg/mL) Ad5
Protocol: as §1, §2

Ad19 = test: Plaque reduction assay in A549 cells, Ad19; type: cell-based; conditions: unidentified adenovirus, 168 h, approximately 7 d, read-out: Adenovirus Serotype EC50 (μg/mL) Ad19
Protocol: as §1, §2

Ad8 = test: Plaque reduction assay in A549 cells, Ad8; type: cell-based; conditions: unidentified adenovirus, A549, 168 h, read-out: Adenovirus Serotype EC50 (μg/mL) Ad8
Protocol: as §1, §2

Ad7a = test: Plaque reduction assay in A549 cells, Ad7a; type: cell-based; conditions: unidentified adenovirus, 168 h, approximately 7 d, read-out: Adenovirus Serotype EC50 (μg/mL) Ad7a
Protocol: as §1, §2

Ad4 = test: Plaque reduction assay in A549 cells, Ad4; type: cell-based; conditions: unidentified adenovirus, 168 h, approximately 7 d, read-out: Adenovirus Serotype EC50 (μg/mL) Ad4
Protocol: as §1, §2

[3] = test system: human papillomavirus (HPV); conditions: Harvey et al., Antiviral Res. 82:1-11, 2009; read-out: EC50, inhibition of replication of human papillomavirus (HPV); cited from earlier work
polyoma virus SV40 = conditions: Harvey et al., Antiviral Res. 82:1-11, 2009; read-out: EC50, inhibition of replication of polyoma virus SV40; cited from earlier work
Epstein-Barr virus (EBV) = conditions: Harvey et al., Antiviral Res. 82:1-11, 2009; read-out: EC50, inhibition of replication of Epstein-Barr virus (EBV); cited from earlier work
AdV serotype 5 (Ad5) = conditions: Harvey et al., Antiviral Res. 82:1-11, 2009; read-out: EC50, inhibition of replication of AdV serotype 5 (Ad5); cited from earlier work

Row | Compound | EC50 (Ad5 [1]) | EC50 (Ad37) | EC50 (Ad3) | EC50 (Ad5 [2]) | EC50 (Ad19) | EC50 (Ad8) | EC50 (Ad7a) | EC50 (Ad4) | pEC50 [3] | pEC50 (polyoma virus SV40) | pEC50 (Epstein-Barr virus (EBV)) | pEC50 (AdV serotype 5 (Ad5))
1 | CC(C)C[C@H]1c2[nH]c3ccc(Br)cc3c2CCN1C(=O)C1CCN(C2CC2)CC1 [Compound 97, (S)-(6-bromo-1-isobutyl-3,4-dihydro-1H-pyrido[3,4-b]indol-2(9H)-yl)(1-cyclopropylpiperidin-4-yl)methanone] | < 0.1 µM | 0.1 to 1 µg/mL (≈ 0.218 to 2.18 µM) | 0.1 to 1 µg/mL (≈ 0.218 to 2.18 µM) | < 0.1 µg/mL | 0.1 to 1 µg/mL (≈ 0.218 to 2.18 µM) | < 0.1 µg/mL | 0.1 to 1 µg/mL (≈ 0.218 to 2.18 µM) | > 1 µg/mL | – | – | – | –
2 | CC(C)C[C@H]1c2[nH]c3ccc(Cl)cc3c2CCN1C(=O)C1CCN(C2CC2)CC1 [Compound 93, (S)-(6-chloro-1-isobutyl-3,4-dihydro-1H-pyrido[3,4-b]indol-2(9H)-yl)(1-cyclopropylpiperidin-4-yl)methanone] | 0.1 to 1 µM | 0.1 to 1 µg/mL (≈ 0.242 to 2.42 µM) | 0.1 to 1 µg/mL (≈ 0.242 to 2.42 µM) | 0.1 to 1 µg/mL (≈ 0.242 to 2.42 µM) | 0.1 to 1 µg/mL (≈ 0.242 to 2.42 µM) | 0.1 to 1 µg/mL (≈ 0.242 to 2.42 µM) | 0.1 to 1 µg/mL (≈ 0.242 to 2.42 µM) | 0.1 to 1 µg/mL (≈ 0.242 to 2.42 µM) | – | – | – | –
3 | O=C(N[C@@H]1CCCc2c1[nH]c1ccc(Cl)cc21)c1ccccn1 [GSK-983] | – | – | – | – | – | – | – | – | 7.70 to 8.30 | 7.70 to 8.30 | 7.70 to 8.30 | 7.70 to 8.30
4 | CC(C)C[C@H]1c2[nH]c3ccc(Cl)cc3c2CCN1C(=O)C1CN(C2CC2)C1 [Compound 92, (S)-(6-chloro-1-isobutyl-3,4-dihydro-1H-pyrido[3,4-b]indol-2(9H)-yl)(1-cyclopropylazetidin-3-yl)methanone] | 0.1 to 1 µM | 0.1 to 1 µg/mL (≈ 0.259 to 2.59 µM) | > 1 µg/mL | 0.1 to 1 µg/mL (≈ 0.259 to 2.59 µM) | 0.1 to 1 µg/mL (≈ 0.259 to 2.59 µM) | > 1 µg/mL | 0.1 to 1 µg/mL (≈ 0.259 to 2.59 µM) | > 1 µg/mL | – | – | – | –
